Measured values taken from patent US11027029B2, “Peptide thiourea derivative, radioisotope labeled compound containing same, and pharmaceutical composition containing same as active ingredient for treating or diagnosing prostate cancer” (CELLBION CO., LTD, priority 2015, dated 2021).

Target: T1, PSMA positive 22Rv1 cells (Homo sapiens, UniProt Q04609)
T1 construct: endogenous in cells; host or cells: 22Rv1 prostate cancer cells
Experiment: In vitro competitive inhibition cell binding test against I-125-MIP-1072
Conditions: 1.85 kBq I-125-MIP-1072, 1 hour, nonlinear regression analysis, read-out: IC50 (inhibition of binding between 22Rv1 cells and I-125-MIP-1072)
Protocol: To perform in vitro competitive inhibition cell binding test of Ga-NOTA-SCN-GUL, the following experiment was conducted.
The PSMA positive prostate cancer cell line 22Rv1 was loaded in a 24-well plate at the density of 2×10^5 cells/well, followed by culture in a 37[…] 5% CO2 incubator for 24 hours. Ga-NOTA-SCN-GUL prepared in Example 2 was diluted 2-fold serially with the cell culture medium containing 0.5% bovine serum albumin. The diluted sample was added to the cultured cells (0.5 mL/well), to which 1.85 kBq (S)-2-(3-((S)-1-carboxy-5-((4-iodobenzyl)amino)pentyl)ureido)pentanedioic acid (I-125-MIP-1072) was added (0.5 mL/well). After well mixed, the mixture was cultured in a 37[…] 5% CO2 incubator for 1 hour. The culture medium was discarded, and the cells were washed with fresh medium twice, to which 0.5% sodium dodecyl sulfate (SDS) dissolved in PBS was added (1 mL/well). The mixture was gently shaken for complete dissolving, and then loaded in a 5 mL disposable plastic test tube. Then, the radioactivity was measured with a gamma counter.

T1 sequence (Q04609 whole entry): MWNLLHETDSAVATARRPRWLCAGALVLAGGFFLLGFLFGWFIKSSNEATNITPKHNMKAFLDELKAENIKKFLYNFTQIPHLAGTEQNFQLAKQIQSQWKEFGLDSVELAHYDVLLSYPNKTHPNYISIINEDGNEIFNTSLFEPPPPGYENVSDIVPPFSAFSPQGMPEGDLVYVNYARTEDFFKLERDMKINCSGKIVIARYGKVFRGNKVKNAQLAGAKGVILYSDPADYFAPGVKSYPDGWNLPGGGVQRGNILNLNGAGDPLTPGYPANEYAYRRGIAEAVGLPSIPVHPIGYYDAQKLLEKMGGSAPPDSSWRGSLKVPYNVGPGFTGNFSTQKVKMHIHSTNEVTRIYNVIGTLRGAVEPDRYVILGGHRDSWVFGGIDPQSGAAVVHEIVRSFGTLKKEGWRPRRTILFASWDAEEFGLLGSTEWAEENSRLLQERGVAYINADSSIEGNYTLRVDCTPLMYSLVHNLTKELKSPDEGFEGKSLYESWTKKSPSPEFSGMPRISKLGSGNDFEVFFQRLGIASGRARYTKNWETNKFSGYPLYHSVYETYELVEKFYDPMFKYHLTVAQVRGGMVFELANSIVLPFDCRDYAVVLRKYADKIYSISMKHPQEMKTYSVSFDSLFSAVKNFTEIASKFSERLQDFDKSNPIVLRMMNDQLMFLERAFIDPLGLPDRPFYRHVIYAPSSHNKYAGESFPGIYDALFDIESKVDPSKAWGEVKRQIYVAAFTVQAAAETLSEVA

O=C(O)CCC(NC(=O)NC(CCCCNC(=S)Nc1ccc(CC2CN3CCN4CCN2CC(=O)[O][Ga]([O]C(=O)C4)[O]C(=O)C3)cc1)C(=O)O)C(=O)O (stereo not shown) [Example 2]
IC50: 18.3 nM
